We go through one molecule from US10174307B2, “Performance enhancing genetic variants of E. coli” (priority 2014, dated 2019).

As a reminder, the MIC is the lowest concentration found to suppress growth. A lower MIC goes with greater potency.

This assay relates to E. coli. Description: Erythromycin MIC quoted in legend of growth assay with and without erythromycin. The assay is classed as cell-based. The note with it: Escherichia coli. The method, then:
E. coli MG1655 was used as wild-type. The ALE selected rpoBE564V and rpoBE672K knock in strains were previously constructed by allelic replacement^7. To generate additional variants of […] and 672 positions, MAGE was performed on the wild-type strain by first transformation of recombineering plasmid pKD46^46, then inactivation of mutS with two nonsense mutations at residues 189 and 191 using an oligo (mutS_MUT). […] To perform each cycle of MAGE, the 1-Red system was induced with 0.5%-arabinose 45 minutes prior to generation of electrocompetent cells and oligo. Batch cultures were done in flask with M9 minimal media and 4 g/L of glucose at 37° C. or LB rich media. Glucose limited chemostats were carried out in a Bioflo 110 fermentor (New Brunswick Scientific, NJ). Glucose supplemented M9 was added to the reactor at 0.31 and 0.44 h^−1 dilution rates controlled by a peristaltic pump. Steady state was achieved after 3-5 residence times and was verified by biomass measurements. Phenotypic tests were performed by inoculation of media with an overnight pre-culture of glucose M9 media for all cases. Erythromycin was added to the media to the indicated concentration. The pH of M9 was adjusted to the indicated value with 6M HCl. Different substrates and mixtures were added to M9 to test growth in the indicated conditions. […]

SMILES strings stand for the structures. Converted amounts (≈) assume the structure as drawn.

`CC[C@H]1OC(=O)[C@H](C)[C@@H](O[C@H]2C[C@@](C)(OC)[C@@H](O)[C@H](C)O2)[C@H](C)[C@@H](O[C@@H]2O[C@H](C)C[C@H](N(C)C)[C@H]2O)[C@](C)(O)C[C@@H](C)C(=O)[C@H](C)[C@@H](O)[C@]1(C)O` [erythromycin] showed an MIC of 512 to 1020 µg/mL (≈ 698 to 1400 µM).
